Test results taken from PubChem BioAssay (NCI).
Where “and” joins values, the source holds several entries; their conditions need not be identical. Equal entries are not always repeated.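 Results reflect a 48-hour exposure of cells in 96-well plates to compound at five concentrations. GI50: concentration for 50% inhibition of growth. TGI: concentration producing complete growth inhibition.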

Assays:
Experiment in all cases: growth of human tumour cells (NCI), 48 h
SK-OV-3 ovarian = system: SK-OV-3 ovarian
TK-10 renal = system: TK-10 renal
OVCAR-4 ovarian = system: OVCAR-4 ovarian
NCI-H23 lung = system: NCI-H23 lung
UACC-62 melanoma = system: UACC-62 melanoma
SF-268 CNS = system: SF-268 CNS
UO-31 renal = system: UO-31 renal
SK-MEL-28 melanoma = system: SK-MEL-28 melanoma
SK-MEL-5 melanoma = system: SK-MEL-5 melanoma
KM12 colon = system: KM12 colon

Structure (SMILES) | GI50 (SK-OV-3 ovarian) [µM] | TGI (SK-OV-3 ovarian) | GI50 (TK-10 renal) [µM] | TGI (TK-10 renal) | GI50 (OVCAR-4 ovarian) [µM] | TGI (OVCAR-4 ovarian) | GI50 (NCI-H23 lung) [µM] | TGI (NCI-H23 lung) | GI50 (UACC-62 melanoma) | TGI (UACC-62 melanoma) [µM] | GI50 (SF-268 CNS) [µM] | TGI (SF-268 CNS) | GI50 (UO-31 renal) [µM] | TGI (UO-31 renal) [µM] | GI50 (SK-MEL-28 melanoma) [µM] | TGI (SK-MEL-28 melanoma) [µM] | GI50 (SK-MEL-5 melanoma) | TGI (SK-MEL-5 melanoma) [µM] | TGI (KM12 colon) | GI50 (KM12 colon) [µM]
Cc1cc(C)c([I+]c2c(C)cc(C)cc2C)c(C)c1 | 1.14 | 2.37 µM | 0.712 | 2.06 µM | 0.277 | 1.35 µM | 0.334 | 1.83 µM | 0.339 µM | 1.5 | 0.615 | 2.23 µM | 1.57 | 3.7 | 0.774 | 2.08 | 0.201 µM | 0.476 |  | 
O=CC1=CCCN(CCc2c[nH]c3ccccc23)C1 |  | 224 µM |  | 140 µM |  |  |  | 101 µM |  | 111 |  | 162 µM |  |  |  | 41.1 |  | 129 | 128 µM | 
O=C(NC1CCCCC1)NC12CC3CC(CC(F)(C3)C1)C2 |  | > 100 µM |  | > 100 µM |  |  |  | > 100 µM |  | > 100 |  |  |  | > 100 |  | > 100 |  | > 100 | > 100 µM | 
Cc1ccc([N+](=O)[O-])cc1NC(=O)C(=O)Cc1nc2ccc(C(=O)c3ccccc3)cc2[nH]c1=O |  | > 100 µM |  | > 100 µM |  | > 100 µM |  | > 100 µM |  | > 100 |  |  |  | > 100 |  | > 100 |  | > 100 | > 100 µM | 
O=C(N/C(=C\c1cccc([N+](=O)[O-])c1)c1nc2c3c(ccc2[nH]1)C(=O)c1ccccc1C3=O)c1ccccc1 |  | 78 µM |  | 82.2 µM |  |  |  | > 100 µM |  | > 100 |  | > 100 µM |  | > 100 |  | 85.8 |  | > 100 | > 100 µM | 
Cn1c(=O)nc2n(-c3ccc(F)c(F)c3)c3ccccc3nc-2c1=O |  | > 100 µM |  | > 100 µM |  | 21.1 µM |  | 29.9 µM |  | 5.47 |  | > 100 µM |  | > 100 |  |  |  | 22.5 | > 100 µM | 
C=CCC1(CN(C)C)CC/C(=C\c2cc(OC)c(OC)c(OC)c2)C1=O (centres undefined) |  |  |  | 36.4 µM |  | 50.4 µM |  | > 100 µM |  | 43.1 |  | 51.6 µM |  | 77 |  | > 100 |  | 35.3 | 32.8 µM | 
COC(=O)[C@@H](C)C[C@H](Cc1ccccc1)NC(=O)c1csc([C@@H](C[C@H](C(C)C)N(C)C(=O)[C@@H](NC(=O)[C@H]2CCCCN2C)c2ccc(F)cc2)OC(C)=O)n1 |  | 25 µM and > 100 µM |  | 25 µM and > 100 µM |  | 25 µM and > 100 µM |  | 25 µM and > 100 µM | 0.00331 µM and 0.0025 µM | 25 |  | 25 µM and > 100 µM |  |  |  | > 100 | 0.00535 µM and 0.0025 µM and 0.0101 µM |  | 25 µM and > 100 µM | 
Nc1ccc(C(=O)CC2(O)C(=O)Nc3ccccc32)cc1 (centres undefined) |  | > 100 µM |  | > 100 µM |  | > 100 µM |  | > 100 µM |  | > 100 |  | > 100 µM |  | > 100 |  | > 100 |  | > 100 |  | 
COc1cc(/C=C2\C[C@H]3[C@@H]4CC=C5C[C@@H](O)CC[C@]5(C)[C@H]4CC[C@]3(C)[C@H]2O)ccc1OCCN1CCCCC1 |  |  | 1.61 | 3.64 µM |  |  | 1.21 | 3.21 µM | 1.73 µM | 3.45 | 1.74 | 12.5 µM | 1.18 |  | 1.06 | > 50 | 0.576 µM | 1.19 | 2.12 µM | 0.912
